These results are taken from patent publication US11952334B2, “Cocrystals of ubiquinone and compositions comprising them” (CENTER FOR INTELLIGENT RESEARCH IN CRYSTAL ENGINEERING, S.L., priority 2018, dated 2024).

A short description of data set [1]: Dissolution rate of ubiquinone vs cocrystals in FaSSIF-v2 medium (small-scale dissolution assay). In kind it is physicochemical. Conditions: for Dissolution rate compared with ubiquinone (in words): FaSSIF-v2 medium pH 6.50, 25° C.; for Dissolution rate: tablet 8 mm, exposed surface 0.5 cm^2, FaSSIF-v2 medium pH 6.50, 25° C., Noyes-Whitney fit. The method, then:
1. Dissolution Rate Experiments • Tablet production: tablets of 8 mm diameter were made using a manual hydraulic tablet press (Applied Measurements Ltd, UK) up to a compression weight of 70 Kg. 40-50 mg of compound, ubiquinone or co-crystal, were weighted. The total exposed surface area was 0.5 cm^2. • Medium: aqueous solution containing 106 mM sodium chloride, 28.4 mM monobasic sodium phosphate, and 8.7 mM sodium hydroxide, adjusted with sodium hydroxide to pH 6.50. • Dissolution tests were performed with a small-scale dissolution assay installed in a GlpKa™ titrator (Sirius Analytical Instruments, UK). • Dissolution time and temperature: 2 hours and 25° C. • Procedure: 15 mL of aqueous medium was added into the sample vial containing the tablet. Spectra were recorded every 30 seconds for 1 hour through Sirius D-PAS spectrometer, with a bifurcated optic fibre dip probe (Hellma Analytics). The medium was stirred at a constant rate.
2. HPLC-MS/MS Quantification • HPLC conditions: • Instrument: Agilent HPLC, consisting on two pumps, oven, and an autoinjector. • Column: Teknokroma C8, 150×4.6 mm, 5 μm. • Mobile phase: 5 mM ammonium formate in methanol:isopropanol (90:10). • Elution mode: isocratic. • Column temperature: 35° C. • Flow rate: 1 mL/min. • Injection volume: […]. • Retention time of ubiquinone: 8.5 min. • MS conditions: • Instrument: Linear Ion Trap Quadrupole LC/MS/MS Mass Spectrometer 6500 Q TRAP (AB SCIEX Instruments). • Curtain Gas: 25 p.s.i. • Source temperature: 400° C. • Ion Source Gas 1: 50 p.s.i. • Ion Source Gas 2: 50 p.s.i. • Ion Spray Voltage: 5500 V. • Mode: positive ionization. • Scan mode: MRM. • Transitions for ubiquinone: • Quantification: 880.8 (Q1)—197.1 (Q3); DP=100, CE=25; Dwell time=1000 ms • Confirmation: 880.8 (Q1)—149.3 (Q3); DP=90, CE=45; Dwell time=1000 ms.
Dissolution rates of the cocrystals were determined by monitoring the dissolution profile of the different coformers. Molar extinction coefficients (MEC) of the coformers were measured in water, assuming that they would be nearly identical in FaSSIF aqueous solution.
Dissolution rate of ubiquinone was determined spectrophotometrically. However, as MEC of ubiquinone couldn't be determined in water due to the low solubility of the compound in this medium, concentration of ubiquinone in the dissolution profile was determined by HPLC-MS/MS.
Noyes-Whitney first order exponential equation was fitted to experimental points, providing the dissolution rate values shown in Table 11 below.

The nature of data set [2]: Particle size analysis (granulometry) by laser dispersion. Type of data set: physicochemical. Conditions: dispersing fluid silicone oil. Here is the method: Particle size can be determined, for example by laser dispersion on a Beckman Coulter LS13320 provided with a MLM (Micro Liquid Module) (measure range: 0.4 to 2000 μm; optic model: Fraunhofer.rdf, PIDS included).
Particle size analysis (granulometry) was performed by laser dispersion on a Beckman Coulter LS13320 provided with a MLM (Micro Liquid Module) (measure range: 0.4 to 2000 μm; optic model: Fraunhofer.rdf, PIDS included).
In a beaker about 10 ml of silicone oil and a microspoon of sample were placed. The sample was homogeneized by pipetting it repeatedly with a pasteurized pipette and by subjecting it to ultrasonic treatment (30 KHz; 200 W). The module was cleaned and filled with silicone oil as a dispersing fluid. Before each analysis, an optical alignment of the laser and a measure of the instrument noise was made.

In the case of `COC1=C(OC)C(=O)C(C/C=C(\C)CC/C=C(\C)CC/C=C(\C)CC/C=C(\C)CC/C=C(\C)CC/C=C(\C)CC/C=C(\C)CC/C=C(\C)CC/C=C(\C)CCC=C(C)C)=C(C)C1=O.COC1=C(OC)C(=O)C(C/C=C(\C)CC/C=C(\C)CC/C=C(\C)CC/C=C(\C)CC/C=C(\C)CC/C=C(\C)CC/C=C(\C)CC/C=C(\C)CC/C=C(\C)CCC=C(C)C)=C(C)C1=O.Cc1cc(O)cc(O)c1.Cc1cc(O)cc(O)c1.Cc1cc(O)cc(O)c1` [Compound P57-VII, Ubiquinone:orcinol cocrystal (2:3)], in data set [1], the “Dissolution rate compared with ubiquinone (in words)” value was “highest dissolution rate” and the Dissolution rate came to 106 ± 23 µg/min. In data set [2], the D10 was found to be 2.09 μm, the D50 is 23.5 μm, the D90 is recorded as 35.5 μm and the Mean particle size is 20.9 μm. Besides, in data set [2], the Mode particle size stood at 31.5 μm; the “Percentage of particles between 9.82 μm and 57.8 μm” value (“Percentage” below) was found to be 75.5%.
In data set [2], `COC1=C(OC)C(=O)C(C/C=C(\C)CC/C=C(\C)CC/C=C(\C)CC/C=C(\C)CC/C=C(\C)CC/C=C(\C)CC/C=C(\C)CC/C=C(\C)CC/C=C(\C)CCC=C(C)C)=C(C)C1=O.COC1=C(OC)C(=O)C(C/C=C(\C)CC/C=C(\C)CC/C=C(\C)CC/C=C(\C)CC/C=C(\C)CC/C=C(\C)CC/C=C(\C)CC/C=C(\C)CC/C=C(\C)CCC=C(C)C)=C(C)C1=O.Oc1ccc(O)cc1` [Compound P57-VI, Ubiquinone:hydroquinone (2:1)] displayed a D10 of 1.69 μm, a D50 of 17.0 μm, a D90 of 34.6 μm and a Mean particle size of 17.2 μm. For the same compound, in data set [2], the Mode particle size turned out to be 31.5 μm; the “Percentage” value was found to be 58.3%.
Consider `COC1=C(OC)C(=O)C(C/C=C(\C)CC/C=C(\C)CC/C=C(\C)CC/C=C(\C)CC/C=C(\C)CC/C=C(\C)CC/C=C(\C)CC/C=C(\C)CC/C=C(\C)CCC=C(C)C)=C(C)C1=O.COC1=C(OC)C(=O)C(C/C=C(\C)CC/C=C(\C)CC/C=C(\C)CC/C=C(\C)CC/C=C(\C)CC/C=C(\C)CC/C=C(\C)CC/C=C(\C)CC/C=C(\C)CCC=C(C)C)=C(C)C1=O.O.Oc1cc(O)cc(O)c1` [Compound P57-VIII, Ubiquinone:phloroglucinol monohydrate cocrystal (2:1:1)], for which, in data set [1], the Dissolution rate is 3.5 ± 0.4 µg/min. Further, in data set [2], the D10 worked out at 9.46 μm, the D50 came to 22.2 μm, the D90 came to 34.0 μm and the Mean particle size is 22.0 μm. In data set [2], the Mode particle size is 31.5 μm; the “Percentage” value was 88.9%.
On to `COC1=C(OC)C(=O)C(C/C=C(\C)CC/C=C(\C)CC/C=C(\C)CC/C=C(\C)CC/C=C(\C)CC/C=C(\C)CC/C=C(\C)CC/C=C(\C)CC/C=C(\C)CCC=C(C)C)=C(C)C1=O` [Compound P57, ubiquinone], for which the Dissolution rate in data set [1] was found to be 0.0012 ± 0.0007 µg/min. In addition, in data set [2], the D10 is recorded as 5.19 μm, the D50 turned out to be 28.4 μm, the D90 is 41.7 μm and the Mean particle size was 26.0 μm. In addition, in data set [2], the Mode particle size stood at 38.0 μm; the “Percentage” value is given as 83.1%.
For `COC1=C(OC)C(=O)C(C/C=C(\C)CC/C=C(\C)CC/C=C(\C)CC/C=C(\C)CC/C=C(\C)CC/C=C(\C)CC/C=C(\C)CC/C=C(\C)CC/C=C(\C)CCC=C(C)C)=C(C)C1=O.O=C(O)c1ccc(O)cc1` [Compound P57-III, Ubiquinone:4-hydroxybenzoic acid cocrystal (1:1)], in data set [1], the “Dissolution rate compared with ubiquinone (in words)” value is listed as “highest dissolution rate” and the Dissolution rate stood at 56 ± 8 µg/min. Moreover, in data set [2], the D10 was determined as 2.51 μm, the D50 came to 18.2 μm, the D90 amounted to 36.1 μm and the Mean particle size is on record as 19.0 μm. In addition, in data set [2], the Mode particle size is recorded as 34.6 μm; the “Percentage” value was 70.5%.
“Ubiquinone:resorcinol cocrystal (2:1) [Compound P57-V]” yielded a Dissolution rate in data set [1] of 5.7 ± 0.8 µg/min. Further, in data set [2], the Mean particle size is listed as 14.5 μm; the Mode particle size was found to be 31.5 μm; the “Percentage” value is listed as 52.9%.
